Assay results as given in patent publication US20130190407A1, “CALCIUM RECEPTOR-ACTIVE MOLECULES” (NPS Pharmaceuticals, Inc., priority 1991, published 2013).

How the values were obtained:
Type in all cases: cell-based
[1] = biological target: T1, parathyroid cell calcium receptor (Bos taurus, UniProt P35384); test: Mobilization of intracellular Ca2+ ([Ca2+]i, fura-2) in bovine parathyroid cells; parameters: Parathyroid glands were obtained from freshly slaughtered calves (12-15 weeks old); endogenous in cells; host or cells: dissociated primary bovine (calf) parathyroid cells; settings: Table 6; bovine parathyroid cells; read-out: EC50 PARATHYROID
T1 sequence (P35384 20-1085): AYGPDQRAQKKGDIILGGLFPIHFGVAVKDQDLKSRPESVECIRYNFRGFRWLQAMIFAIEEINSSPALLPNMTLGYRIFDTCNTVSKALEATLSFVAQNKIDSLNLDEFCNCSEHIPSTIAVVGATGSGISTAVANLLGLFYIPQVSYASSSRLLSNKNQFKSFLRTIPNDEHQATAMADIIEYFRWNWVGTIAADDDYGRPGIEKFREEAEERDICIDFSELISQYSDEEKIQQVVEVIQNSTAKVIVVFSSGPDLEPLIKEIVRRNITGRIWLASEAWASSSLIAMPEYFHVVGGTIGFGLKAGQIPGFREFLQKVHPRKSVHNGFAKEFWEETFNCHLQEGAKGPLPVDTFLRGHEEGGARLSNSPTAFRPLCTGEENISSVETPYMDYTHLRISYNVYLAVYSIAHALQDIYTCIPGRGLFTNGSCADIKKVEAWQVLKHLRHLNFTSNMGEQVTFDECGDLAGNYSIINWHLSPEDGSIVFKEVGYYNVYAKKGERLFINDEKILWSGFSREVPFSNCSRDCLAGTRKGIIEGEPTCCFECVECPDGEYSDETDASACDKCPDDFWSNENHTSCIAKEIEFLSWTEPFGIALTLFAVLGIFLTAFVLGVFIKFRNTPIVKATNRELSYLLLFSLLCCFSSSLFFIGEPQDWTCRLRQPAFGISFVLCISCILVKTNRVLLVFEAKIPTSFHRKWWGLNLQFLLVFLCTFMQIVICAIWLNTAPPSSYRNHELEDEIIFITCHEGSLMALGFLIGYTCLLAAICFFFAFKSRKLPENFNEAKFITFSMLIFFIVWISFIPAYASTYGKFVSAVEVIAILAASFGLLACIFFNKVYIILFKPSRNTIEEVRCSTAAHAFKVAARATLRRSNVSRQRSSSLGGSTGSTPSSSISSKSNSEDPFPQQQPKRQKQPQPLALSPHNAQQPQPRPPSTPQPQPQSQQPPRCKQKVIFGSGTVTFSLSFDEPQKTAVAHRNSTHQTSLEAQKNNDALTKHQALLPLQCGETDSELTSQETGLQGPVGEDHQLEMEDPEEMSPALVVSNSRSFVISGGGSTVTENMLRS
Protocol: This section describes procedures used to obtain and treat parathyroid cells from calves and humans. […] Human parathyroid glands, were obtained from patients undergoing surgical removal of parathyroid tissue for primary or uremic hyperparathyroidism (uremic HPT), and were treated similarly to bovine tissue.
Glands were trimmed of excess fat and connective tissue and then minced with fine scissors into cubes approximately 2-3 mm on a side. Dissociated parathyroid cells were prepared by collagenase digestion and then purified by centrifugation in Percoll buffer. The resultant parathyroid cell preparation was essentially devoid of red blood cells, adipocytes, and capillary tissue as assessed by phase contrast microscopy and Sudan black B staining. Dissociated and purified parathyroid cells were present as small clusters containing 5 to 20 cells.
The cells were then pelleted, resuspended in the same buffer, but lacking the ester, and incubated a further 15 minutes at 37° C. The cells were subsequently washed twice with PCB containing 0.5 mM CaCl2 and 0.5% BSA and maintained at room temperature (about 20° C.) Immediately before use, the cells were diluted five-fold with prewarmed 0.5 mM CaCl2-PCB to obtain a final BSA concentration of 0.1%. The concentration of cells in the cuvette used for fluorescence recording was 1−2×10^6/ml.
The fluorescence of indicator-loaded cells was measured at 37° C. in a spectrofluorimeter (Biomedical Instrumentation Group, University of Pennsylvania, Philadelphia, Pa.) equipped with a thermostated cuvette holder and magnetic stirrer using excitation and emission wavelengths of 340 and 510 nm, respectively. […] Leakage of dye is dependent on temperature and most occurs within the first 2 minutes after warming the cells in the cuvette. Dye leakage increases only very slowly thereafter. To correct the calibration for dye leakage, cells were placed in the cuvette and stirred at 37° C. for 2-3 minutes. The cell suspension was then removed, the cells pelleted, and the supernatant returned to a clean cuvette. […] This estimate was subtracted from the apparent Fmin.

[2] = biological target: T1, parathyroid cell calcium receptor; test: Cl- current in Xenopus oocytes injected with bovine parathyroid cell poly(A)+-mRNA; parameters: Whole pieces of gland were used to prepare mRNA that directs the expression of the calcium receptor in Xenopus oocytes; expressed in transfected cells; host or cells: Xenopus laevis oocytes injected with total poly(A)+ mRNA from bovine parathyroid glands; settings: 100 μM
Protocol: (§1) Following incubation, an oocyte was placed into a 100-μl plastic chamber and superfused with MBS at a flow rate of 0.5 ml/min using a peristaltic pump. Test molecules or inorganic polycations were added by rapidly moving the tubing into different buffers. Recording and current-passing electrodes were constructed from thin-wall capillary tubing pulled to a resistance of 1-3 Mohms and filled with 3 M KCl. […] Currents were recorded directly onto a strip chart recorder.
Dissociated bovine parathyroid cells were used to further explore the mechanism of action of NPS R-467 at the receptor level. […] It does, however, elicit responses in parathyroid cells and in oocytes when a small amount of extracellular Ca^2+ is present.

[3] = biological target: T2, osteoclast calcium receptor (Rattus norvegicus, UniProt P48442); test: [Ca2+]i (indo-1) in single rat osteoclasts
T2 sequence (P48442 20-1079): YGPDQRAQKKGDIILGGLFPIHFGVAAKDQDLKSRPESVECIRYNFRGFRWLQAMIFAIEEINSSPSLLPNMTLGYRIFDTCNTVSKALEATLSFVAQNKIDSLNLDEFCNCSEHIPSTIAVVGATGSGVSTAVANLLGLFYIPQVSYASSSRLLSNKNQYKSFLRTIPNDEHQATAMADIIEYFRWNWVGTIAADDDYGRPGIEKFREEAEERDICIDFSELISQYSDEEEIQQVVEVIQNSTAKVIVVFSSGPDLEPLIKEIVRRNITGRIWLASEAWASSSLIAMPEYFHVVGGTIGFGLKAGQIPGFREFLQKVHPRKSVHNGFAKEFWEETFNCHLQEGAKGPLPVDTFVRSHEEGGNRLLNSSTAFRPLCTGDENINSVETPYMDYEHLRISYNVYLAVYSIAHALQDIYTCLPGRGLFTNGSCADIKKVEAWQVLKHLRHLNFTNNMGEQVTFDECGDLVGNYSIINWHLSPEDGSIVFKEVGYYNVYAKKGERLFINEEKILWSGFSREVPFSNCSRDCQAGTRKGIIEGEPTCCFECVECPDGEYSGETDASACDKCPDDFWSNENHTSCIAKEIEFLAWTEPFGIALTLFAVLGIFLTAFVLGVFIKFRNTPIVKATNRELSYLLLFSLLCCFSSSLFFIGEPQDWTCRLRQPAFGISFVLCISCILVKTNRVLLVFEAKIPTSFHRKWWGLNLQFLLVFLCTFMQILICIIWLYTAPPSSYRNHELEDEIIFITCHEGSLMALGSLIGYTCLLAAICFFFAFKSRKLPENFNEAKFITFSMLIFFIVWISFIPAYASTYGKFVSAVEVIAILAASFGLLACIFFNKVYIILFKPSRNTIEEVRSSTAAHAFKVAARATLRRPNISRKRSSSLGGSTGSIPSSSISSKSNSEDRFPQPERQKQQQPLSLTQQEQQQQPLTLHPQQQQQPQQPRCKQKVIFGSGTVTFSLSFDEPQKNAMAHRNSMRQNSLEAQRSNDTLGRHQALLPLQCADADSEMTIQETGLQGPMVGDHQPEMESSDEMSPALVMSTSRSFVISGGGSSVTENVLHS

[4] = biological target: T3, bovine parathyroid cell calcium receptor (Bos taurus, UniProt P35384); test: Cl- current in Xenopus oocytes injected with BoPCaR 1
T3 construct: isolation of a single clone (BoPCaR 1) with a cDNA insert of 5.3 kb; expressed in transfected cells
T3 sequence (P35384 20-1085): T1 sequence (P35384 20-1085)
Protocol: Several pharmacological and biochemical criteria were used to identify this clone as encoding a bona fide bovine parathyroid Ca^2+ receptor. […] These responses increased markedly over a period of one to four days after injection of the eggs with cRNA prepared from the BoPCaR 1 cDNA. Furthermore, the ranges of the concentrations of the two cations eliciting this response were very similar to those shown previously to act on bovine parathyroid cells in vitro.
Xenopus oocytes were injected with BoPCaR 1, the 5.3 Kb cDNA encoding a bovine parathyroid cell calcium receptor as described in Example 25. After two to three days, Cl^− currents were examined in the oocytes using a two-electrode voltage clamp.
Xenopus oocytes were injected with BoPCaR 1 as described in Example 25. After two to three days, Cl^− currents were examined in the oocytes using two electrode voltage clamp.

calcium receptor = biological target: T4, calcium receptor (Homo sapiens, UniProt P41180); test: Cl- current in Xenopus oocytes injected with human parathyroid cell mRNA; settings: hexacyclen 135 μM, neomycin 100 μM, NPS 382 5 mM
T4 construct: poly(A)^+-enriched mRNA from human parathyroid tissue (hyperplastic glands from a case of secondary HPT); expressed in transfected cells; host or cells: Xenopus laevis oocytes injected with poly(A)+ mRNA from hyperplastic human parathyroid glands
T4 sequence (P41180 20-1078): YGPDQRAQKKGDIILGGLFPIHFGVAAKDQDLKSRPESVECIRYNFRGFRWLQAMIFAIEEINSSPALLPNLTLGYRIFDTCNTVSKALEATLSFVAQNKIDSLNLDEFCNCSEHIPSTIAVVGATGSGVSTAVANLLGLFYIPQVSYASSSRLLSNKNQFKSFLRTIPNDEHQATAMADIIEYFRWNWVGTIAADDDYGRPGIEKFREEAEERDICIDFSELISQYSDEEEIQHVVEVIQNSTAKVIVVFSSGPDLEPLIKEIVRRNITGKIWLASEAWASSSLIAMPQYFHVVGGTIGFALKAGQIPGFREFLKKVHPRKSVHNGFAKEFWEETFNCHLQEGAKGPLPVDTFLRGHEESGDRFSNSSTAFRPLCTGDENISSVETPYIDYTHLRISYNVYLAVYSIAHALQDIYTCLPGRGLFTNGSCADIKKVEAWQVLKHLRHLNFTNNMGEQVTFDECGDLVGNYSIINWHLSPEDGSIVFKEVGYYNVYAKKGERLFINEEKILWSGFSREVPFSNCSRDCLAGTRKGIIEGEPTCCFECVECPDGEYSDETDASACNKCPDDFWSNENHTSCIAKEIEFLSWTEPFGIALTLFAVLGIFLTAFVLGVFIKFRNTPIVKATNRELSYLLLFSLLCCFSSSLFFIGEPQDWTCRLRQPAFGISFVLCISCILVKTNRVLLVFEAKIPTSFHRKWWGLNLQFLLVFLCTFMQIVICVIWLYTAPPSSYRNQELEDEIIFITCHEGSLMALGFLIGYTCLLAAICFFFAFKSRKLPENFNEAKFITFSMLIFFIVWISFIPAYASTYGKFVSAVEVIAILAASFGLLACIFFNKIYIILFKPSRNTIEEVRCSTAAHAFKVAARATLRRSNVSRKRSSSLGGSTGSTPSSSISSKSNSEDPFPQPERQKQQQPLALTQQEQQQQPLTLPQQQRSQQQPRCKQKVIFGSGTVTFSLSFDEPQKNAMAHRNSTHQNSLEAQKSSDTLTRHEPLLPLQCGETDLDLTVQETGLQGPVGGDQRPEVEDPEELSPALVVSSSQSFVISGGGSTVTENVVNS
Protocol: Oocytes were injected with poly(A)^+-enriched mRNA from human parathyroid tissue (hyperplastic glands from a case of secondary HPT).
as §1
Using this screen allows one to test for an action directly on the calcium receptor. Oocytes expressing the calcium receptor also responded to several molecules active on intact parathyroid cells when screened as follows. […] This offers rather compelling evidence showing that these molecules act on the calcium receptor or on some other protein intimately associated with its function.

Bovine parathyroid cells = settings: 10 μM isoproterenol 15 min; no pertussis toxin; 2.0 mM Ca2+, 200 μM spermine, 30 μM neomycin B, 2 μg/ml protamine; mean ± SEM
Protocol: This section describes measuring cyclic AMP levels. Cells were incubated as above for PTH secretion studies and at the end of the incubation, a 0.15-ml sample was taken and transferred to 0.85 ml of hot (70° C.) water and heated at this temperature for 5-10 minutes. The tubes were subsequently frozen and thawed several times and the cellular debris sedimented by centrifugation. Portions of the supernatant were acetylated and cyclic AMP concentrations determined by radioimmunoassay.
Bovine parathyroid cells were cultured for 16 hours with or without 100 ng/ml pertussis toxin. […] Each value is the mean±SEM of three experiments.

CC(NCCC(c1ccccc1)c1ccccc1)c1ccccc1 (racemic) [Fendiline, fendiline]
EC50 [1]: 15 µM | Cl- current [2]: elicits oscillatory increases in Cl^− current

NCCCNCCCCNCCCNCCCN(O)CCCNC(=O)Cc1c[nH]c2ccccc12 [NPS 017, Agatoxin 489]
EC50 OSTEOCLAST ([3]; Table 6, rat osteoclasts, indo-1): inactive | Cl- current ([4]; 1 mM extracellular Ca2+): oscillatory increases in the Cl^− current

NCCCN(CCCN)CCCNCCCCNCCCN(CCCN)CCCN [NPS 382, N^1, N^1, N^5, N^14, N^14-tetrakis-(3-aminopropyl)spermine]
mobilization of intracellular Ca2+ in oocytes (calcium receptor): effective

COc1cccc([C@H](C)NCCCc2ccccc2Cl)c1 [NPS S-568]
concentration eliciting Cl- current responses [4]: 100 µM

NCCCCNCCCN [Spermidine, spermidine]
compounds that caused any large increase in [Ca2+]i [3]: none

NCCCNCCCCNCCCN [Spermine, spermine]
cyclic AMP (% of control), control (Bovine parathyroid cells): 23 ± 5 % of control
